Experiments:
[1] = test system: gene transcription in strain 23; assay: Transcriptome analysis with added BMA, strain 23
Method: (§1) Transcriptome analysis was carried out to characterize transcriptional activity in mutant microorganisms using standard methods.
(§2) Sample Preparation • 1) Streak strains onto fresh MSX agar (15 g/L) plates directly from the cryostocks and incubate overnight at 37° C. • 2) Isolate single colonies and inoculate pre-cultures in MSX, using 50 ml shake flasks. Incubate overnight at 37° C. and 250 rpm. • 3) Inoculate cultures in MSX to an initial OD600 of 0.05, using 250 mL pyrex shake flasks with 24/29 neck join. Incubate at 37° C. and 250 rpm. Do 4 biological replicates (3 replicates for sequencing plus one backup)—4 flasks per strain. • 4) Seal shake flasks with sterile Suba seals. To monitor OD, take samples using a sterile syringe and needle after first swabbing the Suba seals with 70% ethanol. Monitor OD. • 5) When OD reaches 0.3, collect first sample for RNA extraction (“before” sample) into a pre-chilled falcon. Keep samples on ice. • 6) Immediately after, add 20% (v/v) BMA. Re-incubate cultures. • 7) Quickly process the samples according to the RNeasy kit protocol, until step 6 of protocol 1. Always keep samples on ice and store it at −80° C. until further use, if possible, flash freeze in liquid nitrogen it before storing. • 8) One hour after the first sample collection/BMA addition, collect the second sample for RNA extraction (“after” sample). Proceed as explained before. • 9) Continue to monitor the OD until the cultures reach 24 h. • To summarise, each strain tested will have 6 samples to send for sequencing, 3 collected right before the addition and 3 collected one hour after, plus 1 “back-up” for before and after, in case something goes wrong during extraction (8 samples total). Besides the WT strain with the addition of BMA, samples were also collected from a WT culture with no BMA, one hour after reaching OD of 0.3, as a control.
(§3) Transcription was compared for a double mutant and the wild-type in the presence and absence of BMA relative to the level in the wild type in the absence of BMA. For the avoidance of doubt the level in the table is the ratio of the level in the strain under the BMA exposure relative to the level in the wild type in the absence of added BMA.

[2] = test system: E. coli BW25113 isolate 5-soxR(Leu139X), 580116(G > T) acrR(indels); assay: Growth kinetics of isolated strain 5 with 20% v/v BMA
E. coli MG1655 = assay: Growth in MSX medium with 20% (v/v) BMA, wild type; type: cell-based, Escherichia coli
[3] = test system: E. coli BW25113 isolate 2-rob(R156H) rpoC(L361R) ilvN(C41Y) ygbK(A294E) IpxM(168_185del); assay: Growth kinetics of isolated strain 2 with 20% v/v BMA
[4] = test system: gene transcription in double mutant; assay: Transcriptome analysis with added BMA, double mutant
Method: as §1, §2, §3

[5] = test system: E. coli MG1655 acrR(T32fs); assay: Growth in MSX medium with 20% (v/v) BMA, single mutation strain; type: cell-based, Escherichia coli; details: 20% (v/v) BMA added immediately after inoculation
[6] = test system: E. coli BW25113 isolate 21-marR(V84G) rpoC(R1075C) rpoC(A787V) ompR(R15S) acrB(V901l) acrR(indels); assay: Growth kinetics of isolated strain 21 with 20% v/v BMA
[7] = test system: E. coli BW25113 isolate 19-marR(V84G) rpoC(R1075C) ompR(R15S) acrB(T3791) acrR(indels); assay: Growth kinetics of isolated strain 19 with 20% v/v BMA
[8] = test system: E. coli BW25113 isolate 23-soxR(R20L) rpoC(r1075C) 2133236( T> A) 3915915(T > G) acrR(indels); assay: Growth kinetics of isolated strain 23 with 20% v/v BMA
[9] = test system: E. coli BW25113 isolate 20-marR(V84G) rpoC(R1075C) ompR(R15S) acrR(indels); assay: Growth kinetics of isolated strain 20 with 20% v/v BMA
[10] = test system: E. coli BW25113 isolate 8-rob(R156H) rpoB(T1037P) torY(A87T) acrR(49Yfs); assay: Growth kinetics of isolated strain 8 with 20% v/v BMA
E. coli BW25113 ΔsoxR = assay: Growth in MSX medium with 20% (v/v) BMA, knock-out strain; type: cell-based, Escherichia coli; details: 20% (v/v) BMA added immediately after inoculation
[11] = test system: E. coli MG1655 acrR(V29G); assay: Growth in MSX medium with 20% (v/v) BMA, single mutation strain; type: cell-based, Escherichia coli; details: 20% (v/v) BMA added immediately after inoculation
E. coli BW25113 ΔacrR = assay: Growth in MSX medium with 20% (v/v) BMA, knock-out strain; type: cell-based, Escherichia coli; details: 20% (v/v) BMA added immediately after inoculation

C=C(C)C(=O)OCCCC [BMA, butyl 2-methylprop-2-enoate] was tested, and the “IdhA transcription level relative to wild type without BMA” value [1] was 28.20, the “acrA transcription level relative to wild type without BMA” value [1] was 6.50 and the “acrB transcription level relative to wild type without BMA” value [1] was 7.66. The “adiY transcription level relative to wild type without BMA” value [1] was 6.73, the “ariR transcription level relative to wild type without BMA” value [1] was 14.82 and the “asr transcription level relative to wild type without BMA” value [1] was 123.20. For the same molecule, the “bssR transcription level relative to wild type without BMA” value [1] was 71.61, the “ibpA transcription level relative to wild type without BMA” value [1] was 31.35 and the “ibpB transcription level relative to wild type without BMA” value [1] was 41.67. For the same molecule, the “narG transcription level relative to wild type without BMA” value [1] was 42.52, the “nirB transcription level relative to wild type without BMA” value [1] was 25.46 and the “nirD transcription level relative to wild type without BMA” value [1] was 25.17. The “pspA transcription level relative to wild type without BMA” value [1] was 32.81, the “pspB transcription level relative to wild type without BMA” value [1] was 27.16 and the “pspD transcription level relative to wild type without BMA” value [1] was 28.18. The “pspc transcription level relative to wild type without BMA” value [1] was 28.45, the “raiA transcription level relative to wild type without BMA” value [1] was 31.13 and the “rmf transcription level relative to wild type without BMA” value [1] was 8.80. For the same molecule, the “soxS transcription level relative to wild type without BMA” value [1] was 30.40, the “spy transcription level relative to wild type without BMA” value [1] was 4.79 and the “ybfA transcription level relative to wild type without BMA” value [1] was 29.99. The “ybhG transcription level relative to wild type without BMA” value [1] was 20.82, the “ybiH transcription level relative to wild type without BMA” value [1] was 16.75 and the “ydgU transcription level relative to wild type without BMA” value [1] was 50.45. For the same molecule, the “yhjx transcription level relative to wild type without BMA” value [1] was 596.44, the “yibT transcription level relative to wild type without BMA” value [1] was 42.63 and the “ymgA transcription level relative to wild type without BMA” value [1] was 8.84. The “ymgC transcription level relative to wild type without BMA” value [1] was 7.42, the “ynfM transcription level relative to wild type without BMA” value [1] was 41.92 and the “yohk transcription level relative to wild type without BMA” value [1] was 10.04. It also gave a Growth rate [2] of 0.625 ± 0.052 h⁻¹, a Lag time [2] of 5 h and a Max cell concentration [2] of 0.597 ± 0.096 g/L. For the same molecule, the “Growth in the presence of BMA” value (E. coli MG1655; 20% (v/v) BMA added immediately after inoculation, WT) was “unable to grow”, the “Time after which growth was observed” value (E. coli MG1655; MSX medium containing 20% (v/v) BMA, 30 mL vials, 37° C., 250 rpm) was 72 h and the Growth rate [3] was 0.532 ± 0.028 h⁻¹. The Lag time [3] was 6 h, the Max cell concentration [3] was 0.651 ± 0.052 g/L and the “acrA transcription level relative to wild type without BMA” value ([4]; LM double mutant) was 5.13. The “acrB transcription level relative to wild type without BMA” value ([4]; LM double mutant) was 4.99, the “IdhA transcription level relative to wild type without BMA” value ([4]; double mutant) was 30.42 and the “adiY transcription level relative to wild type without BMA” value ([4]; double mutant) was 10.80. For the same molecule, the “ariR transcription level relative to wild type without BMA” value ([4]; double mutant) was 8.91, the “asr transcription level relative to wild type without BMA” value ([4]; double mutant) was 711.06 and the “bssR transcription level relative to wild type without BMA” value ([4]; double mutant) was 5.47. For the same molecule, the “ibpA transcription level relative to wild type without BMA” value ([4]; double mutant) was 80.35, the “ibpB transcription level relative to wild type without BMA” value ([4]; double mutant) was 672.54 and the “narG transcription level relative to wild type without BMA” value ([4]; double mutant) was 3.23. For the same molecule, the “nirB transcription level relative to wild type without BMA” value ([4]; double mutant) was 3.28, the “nirD transcription level relative to wild type without BMA” value ([4]; double mutant) was 3.57 and the “pspA transcription level relative to wild type without BMA” value ([4]; double mutant) was 27.60. The “pspB transcription level relative to wild type without BMA” value ([4]; double mutant) was 11.73, the “pspD transcription level relative to wild type without BMA” value ([4]; double mutant) was 10.00 and the “pspc transcription level relative to wild type without BMA” value ([4]; double mutant) was 11.09. For the same molecule, the “raiA transcription level relative to wild type without BMA” value ([4]; double mutant) was 36.36, the “rmf transcription level relative to wild type without BMA” value ([4]; double mutant) was 17.63 and the “soxS transcription level relative to wild type without BMA” value ([4]; double mutant) was 20.93. For the same molecule, the “spy transcription level relative to wild type without BMA” value ([4]; double mutant) was 99.47, the “ybfA transcription level relative to wild type without BMA” value ([4]; double mutant) was 59.92 and the “ybhG transcription level relative to wild type without BMA” value ([4]; double mutant) was 10.78. The “ybiH transcription level relative to wild type without BMA” value ([4]; double mutant) was 7.73, the “ydgU transcription level relative to wild type without BMA” value ([4]; double mutant) was 188.87 and the “yhjx transcription level relative to wild type without BMA” value ([4]; double mutant) was 2.32. For the same molecule, the “yibT transcription level relative to wild type without BMA” value ([4]; double mutant) was 43.57, the “ymgA transcription level relative to wild type without BMA” value ([4]; double mutant) was 9.97 and the “ymgC transcription level relative to wild type without BMA” value ([4]; double mutant) was 11.68. For the same molecule, the “ynfM transcription level relative to wild type without BMA” value ([4]; double mutant) was 29.92, the “yohk transcription level relative to wild type without BMA” value ([4]; double mutant) was 19.51 and the “Growth in the presence of BMA” value [5] was “able to grow”. For the same molecule, the Growth rate [6] was 0.703 ± 0.030 h⁻¹, the Lag time [6] was 5 h and the Max cell concentration [6] was 0.438 ± 0.022 g/L. The Growth rate [7] was 0.701 ± 0.007 h⁻¹, the Lag time [7] was 5 h and the Max cell concentration [7] was 0.653 ± 0.023 g/L. The Growth rate [8] was 0.722 ± 0.019 h⁻¹, the Lag time [8] was 4 h and the Max cell concentration [8] was 0.529 ± 0.023 g/L. It also gave a Growth rate [9] of 0.719 ± 0.041 h⁻¹, a Lag time [9] of 5 h and a Max cell concentration [9] of 0.589 ± 0.012 g/L. The Growth rate [10] was 0.712 ± 0.015 h⁻¹, the Lag time [10] was 5 h and the Max cell concentration [10] was 0.435 ± 0.010 g/L. For the same molecule, the “Growth in the presence of BMA” value (E. coli BW25113 ΔsoxR) was “unable to grow”, the “Growth in the presence of BMA” value [11] was “able to grow” and the “Growth in the presence of BMA” value (E. coli BW25113 ΔacrR) was “unable to grow”.

— patent US11781160B2, “Methods for the production of methacrylates” (priority 2018, dated 2023)
